Results taken from patent publication US20010046987A1, “Oxazolidinones having a sulfoximine functionality” (priority 1999, published 2001).
≈ marks a conversion by molar mass, not a printed value.

What was measured:
Streptococcus pneumoniae = assay: MIC by agar dilution, SPNE 9912; format: cell-based; details: for MIC: Streptococcus pneumoniae, strain SPNE 9912, read-out: Antibacterial Activity Minimum Inhibitory Concentration SPNE 9912; for Antibacterial Activity Minimum Inhibitory Concentration SPNE 9912: strain SPNE 9912
Excerpt: (§1) The in vitro activity of compounds of this invention can be assessed by standard testing procedures such as the determination of minimum inhibitory concentration (MIC) by agar dilution as described in “Approved Standard.

Enterococcus faecium = assay: MIC by agar dilution, EFAE 12712; format: cell-based; details: for MIC: Enterococcus faecium, strain EFAE 12712, read-out: Antibacterial Activity Minimum Inhibitory Concentration EFAE 12712; for Antibacterial Activity Minimum Inhibitory Concentration EFAE 12712: strain EFAE 12712
Excerpt: as §1

[1] = tested on: Staphylococcus epidermidis; assay: MIC by agar dilution, SEPI 30593; format: cell-based; details: for MIC: Staphylococcus epidermidis, strain SEPI 30593, read-out: Antibacterial Activity Minimum Inhibitory Concentration SEPI 30593; for Antibacterial Activity Minimum Inhibitory Concentration SEPI 30593: strain SEPI 30593
Excerpt: as §1

H. influenzae = assay: MIC by agar dilution, HINF 30063; format: cell-based; details: for MIC: Haemophilus influenzae, strain HINF 30063, read-out: Antibacterial Activity Minimum Inhibitory Concentration HINF 30063; for Antibacterial Activity Minimum Inhibitory Concentration HINF 30063: strain HINF 30063
Excerpt: as §1

Enterococcus faecalis = assay: MIC by agar dilution, EFAE 9217; format: cell-based; details: for MIC: Enterococcus faecalis, strain EFAE 9217, read-out: Antibacterial Activity Minimum Inhibitory Concentration EFAE 9217; for Antibacterial Activity Minimum Inhibitory Concentration EFAE 9217: strain EFAE 9217
Excerpt: as §1

Staphylococcus aureus = assay: MIC by agar dilution, SAUR 9213; format: cell-based; details: for MIC: Staphylococcus aureus, strain SAUR 9213, read-out: Antibacterial Activity Minimum Inhibitory Concentration SAUR 9213; for Antibacterial Activity Minimum Inhibitory Concentration SAUR 9213: strain SAUR 9213
Excerpt: as §1

Streptococcus pyogenes = assay: MIC by agar dilution, SPYO 152; format: cell-based; details: for MIC: Streptococcus pyogenes, strain SPYO 152, read-out: Antibacterial Activity Minimum Inhibitory Concentration SPYO 152; for Antibacterial Activity Minimum Inhibitory Concentration SPYO 152: strain SPYO 152
Excerpt: as §1

Moraxella catarrhalis = assay: MIC by agar dilution, MCAT 30607; format: cell-based; details: for MIC: Moraxella catarrhalis, strain MCAT 30607, read-out: Antibacterial Activity Minimum Inhibitory Concentration MCAT 30607; for Antibacterial Activity Minimum Inhibitory Concentration MCAT 30607: strain MCAT 30607
Excerpt: as §1

| Structure (SMILES) | MIC (Streptococcus pneumoniae) | MIC (Enterococcus faecium) | MIC [1] | MIC (H. influenzae) | MIC (Enterococcus faecalis) | MIC (Staphylococcus aureus) | MIC (Streptococcus pyogenes) | MIC (Moraxella catarrhalis) | melting point | Antibacterial Activity Minimum Inhibitory Concentration SPNE 9912 (Streptococcus pneumoniae) | Antibacterial Activity Minimum Inhibitory Concentration EFAE 12712 (Enterococcus faecium) | Antibacterial Activity Minimum Inhibitory Concentration SEPI 30593 [1] | Antibacterial Activity Minimum Inhibitory Concentration HINF 30063 (H. influenzae) | Antibacterial Activity Minimum Inhibitory Concentration EFAE 9217 (Enterococcus faecalis) | Antibacterial Activity Minimum Inhibitory Concentration SAUR 9213 (Staphylococcus aureus) | Antibacterial Activity Minimum Inhibitory Concentration SPYO 152 (Streptococcus pyogenes) | Antibacterial Activity Minimum Inhibitory Concentration MCAT 30607 (Moraxella catarrhalis) |
| --- | --- | --- | --- | --- | --- | --- | --- | --- | --- | --- | --- | --- | --- | --- | --- | --- | --- |
| CC[N-][S@+2]1([O-])CC[C@@H](c2ccc(N3C[C@H](CNC(=S)CC)OC3=O)cc2F)CC1 [Example 15, N-({(5S)-3-[3-Fluoro-4-[1-(ethylimino)-1-oxidohexahydro-1λ^4-thiopyran-4-yl]phenyl]-2-oxo-1,3-oxazolidin-5-yl}methyl)propanethioamide, Z-isomer] | 0.5 mg/L (≈ 1.13 µM) | 1 mg/L (≈ 2.26 µM) | 1 mg/L (≈ 2.26 µM) | 8 mg/L (≈ 18.1 µM) | 1 mg/L (≈ 2.26 µM) | 2 mg/L (≈ 4.53 µM) | 0.5 mg/L (≈ 1.13 µM) | 2 mg/L (≈ 4.53 µM) | 200 to 201 °C |  |  |  |  |  |  |  |  |
| CCC(=S)NC[C@H]1CN(c2ccc(N3CCS(=N)(=O)CC3)c(F)c2)C(=O)O1 [Example 2, N-({(5S)-3-[3-Fluoro-4-(1-imino-1-oxido-1λ^4,4-thiazinan-4-yl)phenyl]-2-oxo-1,3-oxazolidin-5-yl}methyl)propanethioamide] | 0.25 mg/L (≈ 0.603 µM) | 0.5 mg/L (≈ 1.21 µM) | 0.25 mg/L (≈ 0.603 µM) | 2 mg/L (≈ 4.82 µM) | 0.5 mg/L (≈ 1.21 µM) | 1 mg/L (≈ 2.41 µM) | 0.25 mg/L (≈ 0.603 µM) | 2 mg/L (≈ 4.82 µM) | 189 to 190 °C |  |  |  |  |  |  |  |  |
| CCC(=S)NCC1CN(c2ccc(C3CC[S+2]([O-])([N-]C(=O)OC)CC3)c(F)c2)C(=O)O1 [Example 19, N-({(5S)-3-[3-Fluoro-4-(1-[(methoxycarbonyl)imino]-1-oxidohexahydro-1λ^4-thiopyran-4-yl)phenyl]-2-oxo-1,3-oxazolidin-5-yl}methyl)propanethioamide, Z-isomer] | 0.25 mg/L (≈ 0.53 µM) | 1 mg/L (≈ 2.12 µM) | 0.5 mg/L (≈ 1.06 µM) | 2 mg/L (≈ 4.24 µM) |  | 1 mg/L (≈ 2.12 µM) | 0.25 mg/L (≈ 0.53 µM) | 2 mg/L (≈ 4.24 µM) | 217 to 218 °C |  |  |  |  |  |  |  |  |
| CN=S1(=O)CCN(c2ccc(N3C[C@H](CNC(C)=O)OC3=O)cc2F)CC1 [PREP 3, N-({(5S)-3-[3-Fluoro-4-(1-methylimino-1-oxido-1λ^4,4-thiazinan-4-yl)phenyl]-2-oxo-1,3-oxazolidin-5-yl}methyl)acetamide] |  |  |  |  |  |  |  |  |  | 1 µg/mL | 4 µg/mL | 2 µg/mL | 16 µg/mL | 4 µg/mL | 16 µg/mL | 2 µg/mL | 8 µg/mL |
| CC(=S)NC[C@H]1CN(c2ccc(N3CCS(=N)(=O)CC3)c(F)c2)C(=O)O1 [Example 1, N-({(5S)-3-[3-Fluoro-4-(1-imino-1-oxido-1λ^4,4-thiazinan-4-yl)phenyl]-2-oxo-1,3-oxazolidin-5-yl}methyl)ethanethioamide] |  |  |  |  |  |  |  |  |  | 0.25 µg/mL | 1 µg/mL | 0.5 µg/mL | 4 µg/mL | 1 µg/mL | 1 µg/mL | 0.25 µg/mL | 2 µg/mL |
| CC(=S)NC[C@H]1CN(c2ccc(C3CCS(=N)(=O)CC3)c(F)c2)C(=O)O1 (single isomer, unassigned) [Example 9] |  |  |  |  |  |  |  |  |  | 0.25 µg/mL | 0.5 µg/mL | 0.125 µg/mL | 2 µg/mL | 0.5 µg/mL | 0.5 µg/mL | 0.25 µg/mL | 2 µg/mL |
